From US4044134A, “Fused pyrimidin-4(3H)-ones as antiallergy agents” (Pfizer Inc., priority 1976, dated 1977)
Counter-ions that a name gives are not always drawn. Like-named read-outs stand apart in the source and are kept apart here.

Tested on: passive cutaneous anaphylaxis (PCA) reaction
Experiment: passive cutaneous anaphylaxis (PCA) test, i.v. or oral administration
Assay type: in vivo, male Charles River Wistar rats
Settings: for inhibition in vivo at 3 mg/kg / inhibition in vivo at 60 mg/kg / inhibition in vivo at 0.03 mg/kg / inhibition in vivo at 0.3 mg/kg / inhibition in vivo at 1 mg/kg / inhibition in vivo at 0.1 mg/kg / inhibition in vivo at 10 mg/kg / inhibition in vivo at 30 mg/kg / inhibition in vivo at 0.003 mg/kg / inhibition in vivo at 100 mg/kg: Rattus norvegicus, read-out: degree (%) of protection, PCA test
Protocol: In the PCA test, normal animals are injected intradermally (i.d.) with antibodies contained in serum obtained from actively sensitized animals. The animals are then challenged intravenously with antigen mixed with a dye such as Evans' Blue. The increased capillary-permeability caused by the antigen-antibody reaction causes the dye to leak from the site of the antibody injection. The test animals are then asphyxiated and the intensity of the reaction determined by measuring the diameter and intensity of the blue coloration on the inner surface of the animals skin. […] The ability of agents to interfere with PCA reactions is measured in male Charles River Wistar rats, 170-210 g. […] Hyperimmune antisera to hen egg albumin is prepared according to Orange, et al., J. Exptl. […] Forty-eight hours prior to antigen challenge the reaginic antisera is injected intradermally (i.d.) into the shaved skin of a normal rat's back; 5 hours before challenge the hyperimmune antisera is similarly injected; 5 hours later, at a third site, 60 mcg. histamine dihydrochloride is injected i.d. as a check for antihistaminic and unspecific types of blockage; the compounds of the instant invention or saline are then administered i.v. and immediately followed by 2.5 mg. Evan's blue dye and 5 mg. egg albumin in saline. In the case of oral administration Evan's blue dye and egg albumen are given five minutes after administration of the drug. Thirty minutes later the animals are asphyxiated using chloroform and the skin of the back removed and reversed for observation. A score is assigned each injection site equal to the product of the diameter of the site in mm. and a grade of 0.1, 0.5, 1, 2, 3 or 4 proportional to intensity of dye coloration. The scores for a given injection site are summed for each group of 8 animals and compared to the saline treated controls. The difference is expressed as percent blockade due to the compound employed. […] Disodium cromoglycate, a commerial antiallergy agent, is included for comparison. [drawing 3]

Structure (SMILES)	inhibition in vivo at 3 mg/kg (iv, I.V., 3 mg/kg)	inhibition in vivo at 0.03 mg/kg (iv, I.V.)	inhibition in vivo at 1 mg/kg (iv, I.V.)	inhibition in vivo at 10 mg/kg (Oral, 10 mg/kg)	other results
CCOC(=O)Cc1nc2cc3ccccc3cc2c(=O)[nH]1 [2-carbethoxymethylbenzo[g]quinazolin-4(3H)-one, reference compound]	49%	–	–	–	–
Cc1nc2cc3ccccc3cc2c(=O)[nH]1 [2-methylbenzo[g]quinazolin-4(3H)-one, reference compound]	–	–	–	–	activity in the PCA test (rat, in vivo): little or no activity
CCc1nc2nc3cc(OC)c(OC)cc3cc2c(=O)[nH]1 [C2 H5/H/H/OCH3/OCH3/H, 2-Ethyl-7,8-Dimethoxypyrimidin[4,5-b]quinolin-4(SH)-One]	56%	–	–	–	inhibition in vivo at 60 mg/kg (Oral): 0%
COc1cc2cc3c(=O)[nH]c(C)nc3nc2cc1OC [CH3/H/H/OCH3/OCH3/H, 2-Methyl-7,8-Dimethoxypyrimido[4,5-b]Quinolin-4(3H)-One]	77%	11%	–	–	inhibition in vivo at 0.3 mg/kg (iv, I.V.): 45%; inhibition in vivo at 1 mg/kg (Oral): 43%; inhibition in vivo at 3 mg/kg (Oral, 3 mg/kg): 67%
COc1cc2cc3c(=O)[nH]c(C(C)=O)nc3nc2cc1OC [COCH3/H/H/OCH3/OCH3/H, 2-Acetyl-7,8-Dimethoxypyrimido[4,5-b]quinoline-4(3H)-One]	100%	–	21%	15%	inhibition in vivo at 0.1 mg/kg (iv, I.V.): 19%
NC(=O)c1nc2nc3ccccc3cc2c(=O)[nH]1 [CONH2/H/H/H/H/H, Pyrimido[4,5-b]Quinolin-4(3H)-One-2-Carboxamide]	98%	–	–	–	inhibition in vivo at 60 mg/kg (Oral): 23%
COc1cc2cc3c(=O)[nH]c(C(N)=O)nc3nc2cc1OC [CONH2/H/H/OCH3/OCH3/H, 7,8-Dimethoxypyrimido[4,5-b]Quinolin-4(3H)-One-2-Carboxamide]	87%	–	–	–	inhibition in vivo at 30 mg/kg (Oral): 4%
COc1cc2cc3c(=O)[nH]c(C(=O)NO)nc3nc2cc1OC [CONHOH/H/H/OCH3/OCH3/H, 7,8-Dimethoxypyrimido-[4,5-b]-Quinolin-4(3H)-One-2-Hydroxamic Acid]	92%	–	–	–	inhibition in vivo at 60 mg/kg (Oral): 3%
CCCCOC(=O)c1nc2nc3ccccc3cc2c(=O)[nH]1 [COO(n-C4 H9)/H/H/H/H/H, n-Butylpyrimido[4,5-b]Quinolin-4(3H)-One-2-carboxylate]	–	6%	90%	–	inhibition in vivo at 30 mg/kg (Oral): 50%
CCCCOC(=O)c1nc2nc3cc(OC)c(OC)cc3cc2c(=O)[nH]1 [COO(n-C4 H9)/H/H/OCH3/OCH3/H]	90%	100%	–	–	inhibition in vivo at 0.003 mg/kg (iv, I.V., 0.003 mg/kg): 64%; inhibition in vivo at 0.3 mg/kg (iv, I.V.): 94%; inhibition in vivo at 30 mg/kg (Oral): 81%
CCCCOC(=O)c1nc2nc3cc(OC)c(OC(C)=O)cc3cc2c(=O)[nH]1 [COO-(n-C4 H9)/H/H/CH3 COO/OCH3/H]	100%	–	–	36%	–
CCCCOC(=O)c1nc2nc3cc(OC)c(OCc4ccccc4)cc3cc2c(=O)[nH]1 [COO-(n-C4 H9)/H/H/OC7 H7/OCH3/H]	100%	57%	–	12%	–
CCCCOC(=O)c1nc2nc3cc(OC)c(O)cc3cc2c(=O)[nH]1 [COO-(n-C4 H9)/H/H/OH/OCH3/H, n-butyl 7-hydroxy-8-methoxypyrimido[4,5-b]quinolin-4(3H)one-2-carboxylate trifluoroacetate]	100%	–	–	67%	inhibition in vivo at 0.003 mg/kg (iv, I.V., 0.003 mg/kg): 52%
CCOC(=O)c1nc2nc3ccccc3c(-c3ccccc3)c2c(=O)[nH]1 [COOC2 H5/C6 H5/H/H/H/H, Ethyl 5-Phenylpyrimido[4,5-b]Quinolin-4(3H)-One-2-Carboxylate]	100%	–	95%	0%	inhibition in vivo at 0.1 mg/kg (iv, I.V.): 9%; inhibition in vivo at 0.3 mg/kg (iv, I.V.): 51%; inhibition in vivo at 1 mg/kg (Oral): 0%
CCOC(=O)c1nc2nc3cccc(Cl)c3cc2c(=O)[nH]1 [COOC2 H5/H/Cl/H/H/H, Ethyl 6-Chloropyrimido[4,5-b]Quinolin-4(3H)-One-2-Carboxylate]	–	11%	96%	–	inhibition in vivo at 30 mg/kg (Oral): 57%
CCOC(=O)c1nc2nc3cc4c(cc3cc2c(=O)[nH]1)OCO4 [COOC2 H5/H/H/--O--CH2 --O--, Ethyl 7,8-Methylenedioxypyrimido[4,5-b]Quinolin-4(3H)-One-2-Carboxylate]	–	–	70%	–	inhibition in vivo at 0.1 mg/kg (iv, I.V.): 0%; inhibition in vivo at 30 mg/kg (Oral): 0%
CCOC(=O)c1nc2nc3cc4c(cc3cc2c(=O)[nH]1)OCCO4 [COOC2 H5/H/H/--O--CH2 CH2 --O--/H]	72%	–	64%	–	–
CCOC(=O)c1nc2nc3cc(OC)c(OC(C)=O)cc3cc2c(=O)[nH]1 [COOC2 H5/H/H/CH3 COO/OCH3/H, Ethyl 7-Acetoxy-8-Methoxypyrimido[4,5-b]Quinolin-4(3H)One-2-Carboxylate p-Toluenesulfonate]	–	–	–	–	inhibition in vivo at 0.003 mg/kg (iv): 53%; inhibition in vivo at 3 mg/kg (iv): 100%; inhibition in vivo at 10 mg/kg (po): 40%
CCOC(=O)c1nc2nc3ccc(Cl)cc3cc2c(=O)[nH]1 [COOC2 H5/H/H/Cl/H/H, Ethyl 7-Chloropyrimido[4,5-b]quinolin-4(3H)-one-2-carboxylate]	–	0%	70%	–	–
CCOC(=O)c1nc2nc3ccc(F)cc3cc2c(=O)[nH]1 [COOC2 H5/H/H/F/H/H, Ethyl 7-fluoropyrimido[4,5-b]quinolin-4(3H)-one-2-carboxylate]	82%	0%	90%	–	inhibition in vivo at 30 mg/kg (Oral): 17%
CCOC(=O)c1nc2nc3cc(F)ccc3cc2c(=O)[nH]1 [COOC2 H5/H/H/H/F/H, Ethyl 8-fluoropyrimido[4,5-b]quinolin-4(3H)-one-2-carboxylate]	–	–	–	–	inhibition in vivo at 0.1 mg/kg (iv, I.V.): 2%
CCOC(=O)c1nc2cc3ccccc3cc2c(=O)[nH]1 [COOC2 H5/H/H/H/H (Formula II), ethyl Benzo[g]Quinazolin-4(3H)-One-2-Carboxylate]	–	–	–	–	inhibition in vivo at 10 mg/kg (iv, I.V., 10 mg/kg): 27%; inhibition in vivo at 100 mg/kg (Oral): 38%
CCOC(=O)c1nc2nc3ccccc3cc2c(=O)[nH]1 [COOC2 H5/H/H/H/H/H, Ethyl Pyrimido[4,5-b]Quinolin-4-(3H)-One-2-Carboxylate]	99%	30%	100%	–	inhibition in vivo at 0.1 mg/kg (iv, I.V.): 45%; inhibition in vivo at 0.3 mg/kg (iv, I.V.): 82%; inhibition in vivo at 10 mg/kg (iv, I.V., 10 mg/kg): 100%; inhibition in vivo at 1 mg/kg (Oral): 12%; inhibition in vivo at 3 mg/kg (Oral, 3 mg/kg): 69%; inhibition in vivo at 30 mg/kg (Oral): 72%; inhibition in vivo at 60 mg/kg (Oral): 100%; inhibition in vivo at 100 mg/kg (Oral): 80%
CCOC(=O)c1nc2nc3cc(OC)ccc3cc2c(=O)[nH]1 [COOC2 H5/H/H/H/OCH3/H]	90%	0%	–	43%	inhibition in vivo at 0.3 mg/kg (iv, I.V.): 20%
CCOC(=O)c1nc2nc3c(OC)c(OC)ccc3cc2c(=O)[nH]1 [COOC2 H5/H/H/H/OCH3/OCH3, Ethyl 8,9-Dimethoxypyrimido[4,5-b]-Quinolin-4(3H)-One-2-Carboxylate]	100%	–	–	0%	inhibition in vivo at 0.3 mg/kg (iv, I.V.): 39%; inhibition in vivo at 60 mg/kg (Oral): 26%
CCCCOc1cc2nc3nc(C(=O)OCC)[nH]c(=O)c3cc2cc1OCC [COOC2 H5/H/H/OC2 H5/O-(n-C4 H9)/H]	90%	0%	95%	67%	inhibition in vivo at 0.1 mg/kg (iv, I.V.): 28%; inhibition in vivo at 0.3 mg/kg (iv, I.V.): 44%; inhibition in vivo at 1 mg/kg (Oral): 3%; inhibition in vivo at 3 mg/kg (Oral, 3 mg/kg): 43%
